Columns and labels:
[1] = test system: rats with mercuric chloride-induced acute renal failure; assay: Mercuric chloride-induced acute renal failure in rats: survival and renal function; format: in vivo, rat; settings: for survival 7 days later: single dose s.c. 1 hour after mercuric chloride
Source text: Nephrotoxic and ischemic acute renal failure (ARF) induced experimentally in rats have long been used to model this syndrome in humans. […] Male rats weighed 200-225 gm at the start of the experiment. This dose was used because preliminary experiments indicated it results in survival of 25-50% of the animals 7 days later. […] An increase in serum creatinine concentration signals a decline in renal function because the injured kidney is unable to excrete endogenous creatinine in the urine so it accumulates in the blood.
The synthetic peptide […] (14-Ser) (SEQ ID NO: 15) (dissolved in sterile 0.01% bovine serum albumin in phosphate-buffered saline) was injected subcutaneously into rats to determine its effect on survival, recovery of renal fucntion, and stimulation of DNA synthesis. Multiple different peptides were studied including 14-Ser, […] (14-mer) (SEQ ID NO: 39), […] (16-mer) (SEQ ID NO: 4) […] (11-mer) (SEQ ID NO: 6), and […] (11-mer) (SEQ ID NO: 41). Different concentrations and times of administration were tested and compared.
Acute tubular necrosis was induced in 44 rats by the subcutaneous (s.c.) injection of mercuric chloride, and a single dose of 14-ser was administered s.c. 1 hour afterwards. Different amounts of the peptide were given to assesses its capacity to affect the outcome. Survival 7 days later was about twice as high in animals given 100-150 μg of peptide (63%) than in rats given 0-75 μg peptide (29%).
To determine the effect of the peptide on survival and recovery of renal function, acute tubular necrosis was induced in 59 rats; 29 received 14-Ser (100 μg/rat) and 30 received an equal volume of the vehicle s.c. 1 hour after administration of mercuric chloride. Enhanced survival (top panel) and renal functional recovery (bottom panel) of rats give a WGF-derived peptide after mercuric chloride-induced acute tubular necrosis are shown in FIG. 2A and FIG. 2B. Mercuric chloride was injected subcutaneously into each of the 59 rats, and 1 hour later 100 μg of WGF peptide (14-Ser) (n=29 rats) or the vehicle […] was given. Survival was greater in rats given the peptide than in animals receiving the vehicle as early as day 3 after administration of mercuric chloride. Blood was obtained from the tail vein on the days indicated, and serum creatinine concentration was measured. […] On days 2, 3 and 4, the lower creatinine concentration in peptide-treated rats indicates accelerated recovery of kidney function.
Experimental ARF was induced in rats by subcutaneous injection of mercuric chloride. The synthetic peptide […] […] In one experiment a total of 17 rats were injected with a dose of mercuric chloride shown to induce ARF. The different amounts of the peptide (known to stimulate growth of kidney cells in culture) were injected into the animals to assess capacity to improve the outcome. […] In contrast, two of three rats given 100 micrograms of peptide were alive, as were five of six given 200 micrograms. In summary, none of eight rats (0%) given up to 50 micrograms of peptide survived, whereas seven of nine (78%) given 100-200 micrograms did. Thus, the 11-mer WGF peptide improves survival in nephrotoxic ARF.
[…] Four days later, 63% of rats given the 14-Ser peptide were alive compared to 25% of animals receiving the vehicle (chi squared, P-0.0499); 50% of rats receiving EGF were alive (chi squared, P=N.S.). On day 5, 50% of rats given EGF were alive, compared to 12.5% of animals given the vehicle (chi squared, P=0.0436). […] These observations indicate that the 14-Ser peptide and EGF given after renal injury are similar in their ability to improve survival from the ARF syndrome.

BSC-1 cells = assay: Inhibition of WGF and WGF-derived peptide mitogenesis in BSC-1 cells; format: cell-based, African green monkey; settings: TGF-β2 6 ng/ml; exogenous 14-Ser up to 5 μg/ml
Source text: In these studies the pentamers, PQGNH (SEQ ID NO: 36) or YPQGN (SEQ ID NO: 3) were synthesized, purified by HPLC and then assayed for growth-promoting activity. […] Because the pentamers are not mitogenic, when they bind to the site, growth is not observed. After pentamers are bound to the site, the pentamers appear to prevent the hexapeptide from gaining access to the membrane.
Transforming growth factor (TGF)-β2 is an autocrine growth inhibitor secreted by BSC-1 cells that limits proliferation in culture. Exogenous TGF-β2 was added to the culture medium to determine its capacity to inhibit the growth-promoting effect of 14-Ser. TGF-β2 at a concentration of 1 ng/ml was sufficient to abolish the 25% stimulation of growth induced by 14-Ser. At a TGF-β2 concentration of 2 ng/ml, growth was inhibited by 30% in the presence or absence of 14-Ser; at 10 ng/ml, inhibition was 60%.
Because TGF-β2 inhibits proliferation induced by diverse mitogens, a more specific inhibitor was sought. […] Cells were preincubated for 30 minutes with the pentapeptide YPQGN (SEQ ID NO: 3). The culture medium was then aspirated, the monolayer was rinsed, fresh medium was added, and the number of cells counted 4 days later. Preincubation of cells with YPQGN (SEQ ID NO: 3) inhibited the mitogenic effect of the 6-amino acid peptide.

[2] = test system: rats with mercuric chloride-induced acute renal failure; assay: Mercuric chloride-induced acute renal failure in rats: survival and renal function; format: in vivo, rat; settings: given 24 hours before mercuric chloride (EGF 20 μg, s.c.)

Sequence: AQPYPQGNHEASYG
- survival 7 days later ([1]; 0-75 μg peptide): 29%
- recovery of renal function on days 3 and 4 ([1]; 100 μg/rat s.c. 1 hour after mercuric chloride): significantly more rapid recovery
- serum creatinine concentration on day 2 compared to vehicle ([1]; 100 μg/rat s.c. 1 hour after mercuric chloride, P=0.034): significantly lower
- serum creatinine concentration on day 1 ([1]; 100 μg/rat s.c. 1 hour after mercuric chloride, basal 0.5, similar with vehicle): 2.3 mg/dL
- survival compared to vehicle 3 days after onset of ARF ([1]; 100 μg/rat s.c. 1 hour after mercuric chloride, chi squared P=0.035): significantly greater
- survival by day 7 ([1]; 100 μg/rat s.c. 1 hour after mercuric chloride, vehicle 20%): 48%
- survival on day 6 ([1]; 14-Ser 100 μg 1 hour after, EGF 20 μg 2 hours after mercuric chloride, vehicle 12%): 37.5%
- survival four days later ([1]; 14-Ser 100 μg s.c. 1 hour after, EGF 20 μg s.c. 2 hours after mercuric chloride 2.25 mg/kg, vehicle 25%): 63%
- survival 7 days later ([1]; 100-150 μg of peptide): 63%
- renal function (serum creatinine) on day 3 compared to vehicle ([1]; given 24 hours before mercuric chloride, P=0.039): significantly better
- reversal of TGF-β2 growth inhibition (BSC-1 cells): did not reverse growth inhibition
- survival on day 4 ([2]; listed as 14-Ser): 71%
- survival on day 4 ([2]; listed as 14-Ser WGF-derived peptide): 73%

Source: US7550438B2, “Methods for production of growth-promoting proteins and peptides for kidney epithelial cells” (The University of Chicago, priority 1997, dated 2009)
